Experimental data reported in patent US6248305A, “Boron heterocycle steroid mimics and associated pharmaceutical compositions and methods of use” (SRI International, priority 2000, dated 2001).

Legend:
[1] = test system: MCF-7 cells; test: Antiproliferative assay, MCF-7 cells, alamar Blue; assay type: cell-based
Procedure: MCF-7 cells were obtained from the American Type Culture Collection (ATCC, Rockville, Md.). Exponentially growing cells were plated (96-well plates) in MEM (minimal essential medium) containing NaHCO3, CCD (charcoal-coated dextran)-stripped 10% FCS (fetal calf serum), and glycine. Cultures were incubated at 37° C. for 1 day, then treated with target by replacing the medium with 100 μL MEM containing supplements and target (3 wells at each of 5 concentrations). The relative effect of each concentration was compared to that of β-estradiol (positive control) by the alamar Blue™ assay (Biosource International),in which the dye is reduced by cellular mitochondrial enzymes to a soluble fluorophore with an intensity directly proportional to cell number. After cultures were incubated with target, alamar Blue™ diluted to 20% in MEM was added (100 μL/well) and cells were incubated for about 4 h, until a color change indicated sufficient amounts of reduced dye for quantitation. Relative cell number was evaluated directly from the plates by fluorimetry (560 nm excitation, 590 nm detection) on a Millipore 2300 CytoFluor. The concentration at which 50% effectiveness is seen (EC50) was calculated from statistically significant, reproducible effects. Statistical analysis was performed using JMP software (SAS Institute).

[2] = test system: estrogen receptor; details: cited from earlier work
[3] = concentration 10^-5 (unit not given)
[4] = concentration 10^-6 (unit not given)
[5] = concentration 10^-7 (unit not given)
[6] = concentration 10^-8 (unit not given)
[7] = concentration 10^-9 (unit not given)

Molecule | % Inhibition [1, 3] [%] | % Inhibition [1, 4] [%] | % Inhibition [1, 5] [%] | % Inhibition [1, 6] [%] | % Inhibition [1, 7] [%] | affinity for the estrogen receptor [2]
O=C1OB2c3ccc(O)cc3C=NN2c2ccccc21 [Compound 4, 1,2-dihydro-1,6-dihydroxy-2-(2-carboxyphenyl)-2,3,1-benzodiazaborine lactone] | 13 | 4 | 2 | 6 | 0 | 
OB1c2ccc(O)cc2C=NN1c1ccccn1 [Compound 11, 1,2-dihydro-1,6-dihydroxy-2-(6-pyridinyl)-2,3,1-benzodiazaborine] | 55 | 10 | 8 | 8 | 5 | 
COc1cccc(N2N=Cc3cc(O)ccc3B2O)n1 [Compound 15, 1,2-dihydro-1,6-dihydroxy-2-(2-methoxy-6-pyridinyl)-2,3,1-benzodiazaborine] | 62 | 3 | 0 | 0 | 0 | 
CC/C(=C(\c1ccccc1)c1ccc(OCCN(C)C)cc1)c1ccccc1 [tamoxifen, reference compound] | 95 | 54 | 29 | 5 | 0 | 
Estrone and Estradiol-17β, 3-carboranylmethyl Ethers |  |  |  |  |  | 0.5
